Experimental data: article PMC10533412, “Phosphoantigens glue butyrophilin 3A1 and 2A1 to activate Vγ9Vδ2 T cells” (Nature, 2023)
pKd: −log10 of the molar value.

What was measured:
VpBTN3 BFI = VpBTN3 BFI (Vicugna pacos, UniProt A0A345DF50); assay: ITC: pAg binding to VpBTN3 BFI; set-up: species or system alpaca (Vicugna pacos); conditions: ITC; read-out: KD, pAg binding to VpBTN3 intracellular domain (BFI)
Experimental: (§1) ITC experiments were performed using the MicroCal PEAQ-ITC instrument (GE Healthcare) at 25 °C. We used an initial injection of 0.4 μl followed by 19 injections (2 µl each) at 150 s time intervals. ITC binding fits were calculated using MicroCal Analysis software. The samples were prepared using a buffer (20 mM HEPES pH 7.5, 150 mM NaCl).
(§2) ITC experiments of HMBPP, DMAPP or IPP binding to the VpBTN3 BFI (or the preconditioned VpBTN3 BFI and VpBTN2 BFI complex) and VpBTN2 BFI (or VpBTN1 BFI) binding to VpBTN3 BFI in the presence of HMBPP, DMAPP or IPP were performed according to the same procedures as for the BTN3A1 B30.2 and BTN2A1 B30.2.

[1] = biological target: T1, BTN2A1 B30.2–BTN3A1 B30.2 (Homo sapiens, UniProt O00481+Q7KYR7); assay: Sedimentation velocity AUC of BTN2A1 B30.2 and BTN3A1 B30.2 with or without HMBPP; conditions: SV-AUC
T1 construct: The BTN3A1 B30.2 domain was expressed and purified as described previously; 6xHis; made in house; host or cells: Escherichia coli BL21 (DE3) for BTN2A1 B30.2
Experimental: Sedimentation experiments were performed at 20 °C and 45,000 rpm on the Beckman Coulter ProteomeLab XL-I analytical ultracentrifuge according to standard protocols. All of the samples were prepared in the buffer (20 mM HEPES pH 7.5, 150 mM NaCl) and inserted into 12 mm (or 3 mm) Epon centerpieces.

[2] = biological target: T2, BTN2A1 B30.2–BTN3A1 B30.2 (Homo sapiens, UniProt O00481+Q7KYR7, R449A/R469A); assay: ITC: BTN2A1 B30.2 (and mutants) binding to BTN3A1 B30.2 in the presence of pAg
T2 construct: The BTN3A1 B30.2 domain was expressed and purified as described previously; 6xHis; made in house; host or cells: Escherichia coli BL21 (DE3) for BTN2A1 B30.2
Experimental: (§3) ITC binding fits were calculated using MicroCal Analysis software.
For the experiments testing the binding of BTN2A1/BTN2A2 B30.2 domain (including their mutants) to the BTN3A1 B30.2 domain with or without HMBPP, BTN3A1 B30.2 (100 µM) and HMBPP (300 µM) were incubated in the buffer at a 1:3 ratio and loaded into the sample cell, and the injection syringe was filled with the buffer containing 1 mM BTN2A1/BTN2A2 B30.2 (including their mutants).

BTN2A1 B30.2 domain = BTN2A1 B30.2 domain (Homo sapiens, UniProt Q7KYR7); conditions: ITC
Experimental: as §1

BTN3A3(R351H) B30.2 = biological target: T3, BTN3A3(R351H) B30.2 (Homo sapiens, UniProt O00478); assay: ITC: HMBPP binding to BTN3A3(R351H) B30.2
T3 construct: the B30.2 domain of this active mutant (BTN3A3(R351H))
Experimental: as §3

[3] = biological target: T1, BTN2A1 B30.2–BTN3A1 B30.2; assay: SEC–MALS of BTN2A1 B30.2–BTN3A1 B30.2 with or without HMBPP; conditions: listed as HMBPP
Experimental: SEC–MALS experiments were performed using the Wyatt Dawn Heleos II multiangle light-scattering detector (Wyatt Technology) coupled to an AKTA Purifier UPC10 FPLC protein purification system and the Superdex 200 size-exclusion column (GE Healthcare). Protein molecular masses of the individual peaks observed in the size-exclusion chromatograms were analysed by static light scattering in conjunction with their corresponding refractive indices, using an online refractometer connected downstream of the static light scattering detector (Wyatt Optilab rEX). The proteins were prepared at 5 mg ml^−1 in a buffer (20 mM HEPES pH 7.5, 150 mM NaCl). HMBPP was prepared in 0.5 mM. The experiments were performed with a running buffer (20 mM HEPES pH 7.5, 150 mM NaCl) at a flow rate of 0.5 ml min^−1. A standard value of the refractive index, dn/dc = 0.185 ml g^−1, was used for all proteins.

VpBTN1 BFI–VpBTN3 BFI = assay: ITC: VpBTN1 BFI binding to VpBTN3 BFI in the presence of pAg; set-up: species or system alpaca (Vicugna pacos)
Experimental: as §1, §2

T1 sequence (O00481 322-513 limits assumed): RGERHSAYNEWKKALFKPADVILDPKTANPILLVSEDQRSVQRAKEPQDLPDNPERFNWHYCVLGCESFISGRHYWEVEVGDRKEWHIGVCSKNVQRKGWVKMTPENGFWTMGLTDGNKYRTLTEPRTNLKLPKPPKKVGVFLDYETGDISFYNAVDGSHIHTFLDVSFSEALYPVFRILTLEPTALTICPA
T1 sequence (Q7KYR7 316-527 limits assumed): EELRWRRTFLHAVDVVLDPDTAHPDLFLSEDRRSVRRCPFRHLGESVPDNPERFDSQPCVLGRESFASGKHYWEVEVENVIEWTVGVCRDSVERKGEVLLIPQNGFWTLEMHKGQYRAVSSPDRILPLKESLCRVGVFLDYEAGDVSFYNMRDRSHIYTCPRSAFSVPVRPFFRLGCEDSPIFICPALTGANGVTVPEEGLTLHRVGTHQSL
T2 sequence (O00481 322-513): as the sequence (O00481 322-513 limits assumed) above
T2 sequence (Q7KYR7 316-527 R449A/R469A): as the sequence (Q7KYR7 316-527 limits assumed) above, with R134A, R154A counted along it
Chain of VpBTN3 BFI (A0A345DF50 entry or part of it): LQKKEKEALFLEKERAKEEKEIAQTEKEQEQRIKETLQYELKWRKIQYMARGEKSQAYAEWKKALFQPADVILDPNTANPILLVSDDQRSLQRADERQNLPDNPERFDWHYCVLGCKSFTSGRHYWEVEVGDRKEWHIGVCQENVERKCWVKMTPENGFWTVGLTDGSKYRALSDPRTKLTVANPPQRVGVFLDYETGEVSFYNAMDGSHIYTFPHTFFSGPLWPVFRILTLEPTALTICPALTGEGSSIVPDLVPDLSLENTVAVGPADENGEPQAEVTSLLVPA
Chain of BTN2A1 B30.2 domain (Q7KYR7 316-527 limits assumed): as the sequence (Q7KYR7 316-527 limits assumed) above
T3 sequence (O00478 322-518 R381H): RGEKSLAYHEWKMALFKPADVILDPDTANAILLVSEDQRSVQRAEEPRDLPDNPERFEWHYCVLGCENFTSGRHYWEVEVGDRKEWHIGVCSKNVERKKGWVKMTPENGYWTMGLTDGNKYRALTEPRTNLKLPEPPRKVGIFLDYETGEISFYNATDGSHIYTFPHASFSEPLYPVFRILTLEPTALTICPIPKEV

SMILES: C/C(=C\COP(=O)(O)OP(=O)(O)O)CO [Compound 1, (E)-4-hydroxy-3-methylbut-2-en-1-yl diphosphate]
- pKd (VpBTN3 BFI): 5.86
- Molecular mass of BTN2A1 B30.2–BTN3A1 B30.2 oligomer formed on addition of HMBPP (tetramer) [1]: 94.9 kDa
- Binding of 2A1 B30.2 R449A/R469A to 3A1 B30.2 in the presence of HMBPP [2]: does not bind
- HMBPP binding to BTN2A1 B30.2 domain (BTN2A1 B30.2 domain): does not bind
- pKd (BTN3A3(R351H) B30.2): 4.96
- Molecular mass of BTN2A1 B30.2–BTN3A1 B30.2 oligomer formed on addition of HMBPP (trimer) [3]: 78.7 kDa
- VpBTN1 binding to VpBTN3 in the presence of pAg (VpBTN1 BFI–VpBTN3 BFI): does not bind
